Measurements as given in patent publication US9981972B2, “N-hydroxy bicyclic hydantoin carbamates as tools for identification of serine hydrolase targets” (ABIDE THERAPEUTICS, INC., priority 2014, dated 2018).
pIC50: −log10 of the molar value. Like-named read-outs stand apart in the source and are kept apart here.

Legend:
ABHD6 = target: T1, ABHD6 (Mus musculus, UniProt Q8R2Y0); assay: Gel-based competitive ABPP in vitro, mouse brain membrane proteome; assay type: biochemical
T1 construct: from tissue; host or cells: mouse brain, membrane fraction
T1 sequence (Q8R2Y0 1-336): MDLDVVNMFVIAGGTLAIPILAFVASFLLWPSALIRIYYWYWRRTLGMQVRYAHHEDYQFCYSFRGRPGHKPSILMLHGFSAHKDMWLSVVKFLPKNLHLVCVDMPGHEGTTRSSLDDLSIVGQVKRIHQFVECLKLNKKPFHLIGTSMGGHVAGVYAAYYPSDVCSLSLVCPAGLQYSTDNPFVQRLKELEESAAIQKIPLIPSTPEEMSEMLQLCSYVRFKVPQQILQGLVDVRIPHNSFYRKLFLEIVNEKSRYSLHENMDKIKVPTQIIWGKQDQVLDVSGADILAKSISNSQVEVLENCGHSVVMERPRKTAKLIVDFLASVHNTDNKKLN
Method: (§1) Assay Overview: The purpose of this assay was to determine whether test compounds can inhibit LYPLA1 and LYPLA2 in a complex proteomic lysate and to assess anti-target inhibition using a competitive activity-based proteomic profiling (ABPP) assay. In this assay, a complex proteome endogenously expressing LYPLA1/2 was incubated with test compound followed by reaction with a rhodamine-conjugated fluorophosphonate (FP-Rh) serine-hydrolase specific activity-based probe. The reaction products were separated by SDS-PAGE and visualized in-gel using a flatbed fluorescence scanner. The percentage activity remaining was determined by measuring the integrated optical density of the bands. […] Percent inhibition was calculated relative to a DMSO (no compound) control.
(§2) Protocol Summary: Mouse brain membrane proteome (50 μL reaction volume, 1 mg/mL in DPBS) was treated with 0.1-100 μM test compound (1 μL of a 50× stock in DMSO) for 30 minutes at 37° C. FP-Rh (1 μL of 50× stock in DMSO, Thermo #88318) was added to a final concentration of 2 μM. The reactions were incubated for 30 minutes at 25° C., quenched with 16 μL 4×SDS-PAGE loading buffer (reducing), separated by SDS-PAGE and visualized by in-gel fluorescent scanning. The percentage activity remaining was determined by measuring the integrated optical density of the bands relative to a DMSO-only (no compound) control. Assay Cutoff: Compounds with ≥50% inhibition of targets at 1 μM test compound concentration were considered active.
(§3) Assay Overview: The purpose of this assay was to determine IC50 values of powder samples of test compounds for enzyme of interest activity, and anti-targets in a complex proteomic lysate using a gel-based competitive ABPP assay. In this assay, a complex proteome was incubated with test compound followed by reaction with FP-Rh and SDS-PAGE analysis as described above.
(§4) Protocol Summary: Soluble HeLa cell proteome (50 μL reaction volume, 1 mg/mL in DPBS) or mouse brain membrane proteome (50 μL reaction volume, 1 mg/mL in DPBS) was treated with varying concentrations of test compound (1 μL of a 50× stock in DMSO) for 30 minutes at 37° C. FP-Rh (1 μL of 50× stock in DMSO) was added to a final concentration of 2 μM. The reaction was incubated for 30 minutes at 25° C., quenched with 16 μL 4×SDS-PAGE loading buffer (reducing), separated by SDS-PAGE and visualized by in-gel fluorescent scanning. The percentage activity remaining was determined by measuring the integrated optical density of the enzymes of interest, and anti-target bands relative to a DMSO-only (no compound) control. IC50 values were determined from dose-response curves from three replicates at each inhibitor concentration: 1, 10, 100, 1000, 10000 nM and 0.01, 0.1, 1, 10, 100, 1000, 10000, 50000, and 100000 nM.

FAAH = target: T2, FAAH (Mus musculus, UniProt O08914); assay: as above; assay type: biochemical; details: for FAAH in vitro enzyme activity, % @ 10 μM: mouse brain (mem) proteome
T2 construct: from tissue; host or cells: mouse brain, membrane fraction
T2 sequence (O08914 1-579): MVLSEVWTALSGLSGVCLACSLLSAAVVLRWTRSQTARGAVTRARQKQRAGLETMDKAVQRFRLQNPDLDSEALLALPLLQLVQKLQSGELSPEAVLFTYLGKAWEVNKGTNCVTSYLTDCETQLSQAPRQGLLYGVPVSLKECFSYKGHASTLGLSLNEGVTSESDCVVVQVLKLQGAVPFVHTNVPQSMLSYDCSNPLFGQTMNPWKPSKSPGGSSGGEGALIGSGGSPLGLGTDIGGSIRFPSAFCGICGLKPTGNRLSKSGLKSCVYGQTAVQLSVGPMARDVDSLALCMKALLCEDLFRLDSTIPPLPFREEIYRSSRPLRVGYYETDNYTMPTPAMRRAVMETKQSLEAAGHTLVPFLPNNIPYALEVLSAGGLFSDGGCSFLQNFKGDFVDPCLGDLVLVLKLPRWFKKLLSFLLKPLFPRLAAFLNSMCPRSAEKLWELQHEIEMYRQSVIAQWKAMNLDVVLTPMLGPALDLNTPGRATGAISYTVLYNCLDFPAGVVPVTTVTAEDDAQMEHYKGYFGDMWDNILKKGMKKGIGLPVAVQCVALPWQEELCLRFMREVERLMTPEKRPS
Method: as §1, §2, §3, §4

[1] = mouse ABHD6, in vitro, read-out: mABHD6 in vitro potency (IC50)

ABHD6 in vitro enzyme activity, % @ 1 μM (ABHD6; mouse brain (mem) proteome) | FAAH in vitro enzyme activity, % @ 10 μM (FAAH) | other results | Compound
100% @ | 0% @ |  | C#CCOc1ccc(N2CCN(C(=O)ON3C(=O)[C@H]4CN(Cc5ccc(Oc6ccccc6)cc5)CCN4C3=O)CC2)cc1 [Compound 45, (R)-1,3-dioxo-7-(4-phenoxybenzyl)-hexahydroimidazo[1,5-a]pyrazin-2(3H)-yl 4-(4-(prop-2-ynyloxy)phenyl)piperazine-1-carboxylate]
100% @ | 0% @ |  | C#CCOc1ccc(N2CCN(C(=O)ON3C(=O)[C@@H]4CN(Cc5ccc(Oc6ccccc6)cc5)CCN4C3=O)CC2)cc1 [Compound 44, (S)-1,3-dioxo-7-(4-phenoxybenzyl)-hexahydroimidazo[1,5-a]pyrazin-2(3H)-yl 4-(4-(prop-2-ynyloxy)phenyl)piperazine-1-carboxylate]
100% @ | 0% @ |  | C#CCOc1ccc(N2CCN(C(=O)ON3C(=O)[C@H]4CN(CC5CCN(Cc6ccccc6)CC5)CCN4C3=O)CC2)cc1 [Compound 47, (R)-7-((1-benzylpiperidin-4-yl)methyl)-1,3-dioxo-hexahydroimidazo[1,5-a]pyrazin-2(3H)-yl 4-(4-(prop-2-ynyloxy)phenyl)piperazine-1-carboxylate]
 |  | ABHD6 in vitro enzyme activity, % @ 20 μM (ABHD6; 20 μM, mouse brain (mem) proteome): 100% @ | O=C(ON1C(=O)C2CN(Cc3ccc(Oc4ccccc4)cc3)CCN2C1=O)N1CCC(c2ccccc2)CC1 (stereo not shown) [Compound 38, 1,3-dioxo-7-(4-phenoxybenzyl)hexahydroimidazo[1,5-a]pyrazin-2(3H)-yl 4-phenylpiperidine-1-carboxylate]
100% @ | 75% @ |  | C#Cc1ccc(CCC2CCN(C(=O)ON3C(=O)[C@@H]4CN(C(=O)N5CCOCC5)CCN4C3=O)CC2)cc1 [Compound 48, (S)-7-(morpholine-4-carbonyl)-1,3-dioxo-hexahydroimidazo[1,5-a]pyrazin-2(3H)-yl 4-(4-ethynylphenethyl)piperidine-1-carboxylate]
100% @ | 0% @ |  | C#CCOc1ccc(N2CCN(C(=O)ON3C(=O)[C@@H]4CN(CC5CCN(Cc6ccccc6)CC5)CCN4C3=O)CC2)cc1 [Compound 46, (S)-7-((1-benzylpiperidin-4-yl)methyl)-1,3-dioxo-hexahydroimidazo[1,5-a]pyrazin-2(3H)-yl 4-(4-(prop-2-ynyloxy)phenyl)piperazine-1-carboxylate]
100% @ | 50% @ |  | C#Cc1ccc(CCC2CCN(C(=O)ON3C(=O)[C@H]4CN(C(=O)N5CCOCC5)CCN4C3=O)CC2)cc1 [Compound 49, (R)-7-(morpholine-4-carbonyl)-1,3-dioxo-hexahydroimidazo[1,5-a]pyrazin-2(3H)-yl 4-(4-ethynylphenethyl)piperidine-1-carboxylate]
100% @ | 50% @ |  | O=C(ON1C(=O)[C@@H]2CN(Cc3ccc(Br)cc3)CCN2C1=O)N1CCC(CCc2ccc(Cl)cc2)CC1 [Compound 40, (S)-7-(4-bromobenzyl)-1,3-dioxohexahydroimidazo[1,5-a]pyrazin-2(3H)-yl4-(4-chlorophenethyl)piperidine-1-carboxylate]
100% @ | 0% @ |  | COc1ccc(N2CCN(C(=O)ON3C(=O)C4CN(CC5CCN(Cc6ccccc6)CC5)CCN4C3=O)CC2)cc1 (stereo not shown) [Compound 52, 7-((1-benzylpiperidin-4-yl)methyl)-1,3-dioxo-hexahydroimidazo[1,5-a]pyrazin-2(3H)-yl 4-(4-methoxyphenyl)piperazine-1-carboxylate]
100% @ | 50% @ |  | C#Cc1ccc(CCC2CCN(C(=O)ON3C(=O)C4CN(C(=O)N5CCOCC5)CCN4C3=O)CC2)cc1 (stereo not shown) [Compound 53, 7-(morpholine-4-carbonyl)-1,3-dioxo-hexahydroimidazo[1,5-a]pyrazin-2(3H)-yl 4-(4-ethynylphenethyl)piperidine-1-carboxylate]
100% @ | 0% @ | pIC50 (ABHD6; [1]): 8.66 | O=C(ON1C(=O)[C@@H]2CN(C(=O)N3CCOCC3)CCN2C1=O)N1CCC(CCc2ccc(Cl)cc2)CC1 [Compound 50, (S)-7-(morpholine-4-carbonyl)-1,3-dioxohexahydroimidazo[1,5-a]pyrazin-2(3H)-yl 4-(4-chloro-phenethyl)piperidine-1-carboxylate]
100% @ | 0% @ |  | COc1ccc(N2CCN(C(=O)ON3C(=O)[C@H]4CN(CC5CCN(Cc6ccccc6)CC5)CCN4C3=O)CC2)cc1 [Compound 43, (R)-7-((1-benzylpiperidin-4-yl)methyl)-1,3-dioxo-hexahydroimidazo[1,5-a]pyrazin-2(3H)-yl 4-(4-methoxyphenyl)piperazine-1-carboxylate]
100% @ | 100% @ |  | O=C(ON1C(=O)[C@@H]2CN(C(=O)N3CCOCC3)CCN2C1=O)N1CCN(CCc2ccc(Cl)cc2)CC1 [Compound 41, (S)-7-(morpholine-4-carbonyl)-1,3-dioxo-hexahydroimidazo[1,5-a]pyrazin-2(3H)-yl 4-(4-chlorophenethyl)piperazine-1-carboxylate]
100% @ | 0% @ |  | COc1ccc(N2CCN(C(=O)ON3C(=O)[C@@H]4CN(CC5CCN(Cc6ccccc6)CC5)CCN4C3=O)CC2)cc1 [Compound 42, (S)-7-((1-benzylpiperidin-4-yl)methyl)-1,3-dioxo-hexahydroimidazo[1,5-a]pyrazin-2(3H)-yl 4-(4-methoxyphenyl)piperazine-1-carboxylate]
 |  | pIC50 (ABHD6; anti-target, mouse brain membrane proteome, read-out: ABHD6 IC50): 8.50; selectivity for LYPLA1/2 over FAAH (FAAH; LYPLA versus FAAH): ~13 fold; pIC50 (FAAH; anti-target, mouse brain membrane proteome): 5.50 | O=C(ON1C(=O)C2CN(C(=O)N3CCOCC3)CCN2C1=O)N1CCC(CCc2ccc(Cl)cc2)CC1 (stereo not shown) [Compound 1, 7-(morpholine-4-carbonyl)-1,3-dioxohexahydroimidazo[1,5-a]pyrazin-2(3H)-yl 4-(4-chloro-phenethyl)piperidine-1-carboxylate]
100% @ | 0% @ | pIC50 (ABHD6; [1]): 8.60 | O=C(ON1C(=O)[C@H]2CN(C(=O)N3CCOCC3)CCN2C1=O)N1CCC(CCc2ccc(Cl)cc2)CC1 [Compound 51, (R)-7-(morpholine-4-carbonyl)-1,3-dioxohexahydroimidazo[1,5-a]pyrazin-2(3H)-yl 4-(4-chloro-phenethyl)piperidine-1-carboxylate]
